Values joined by “and” are separate entries in the source; they are usually repeats but may differ in a detail not shown here. Equal values may be shown once.
How the values were obtained:
Type in all cases: cell-based
[1] = test system: Cordana musae; assay: in vitro-Test with fungal microorganisms, Method B (tables E9-E16); conditions: single active
Outline: (§1)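 Cpd in MeOH + alkylaryl-polyglycol-ether, solvent evaporated; liquid medium + fungal spores/mycelium added; OD600 read; 3–7 d, 20° C., 85% RH; growth inhibition by photometry, % efficacy vs untreated ctrl.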

[2] = test system: Diaporthe citri; assay: in vitro-Test with fungal microorganisms, Method A (tables F1-F11)
Outline: (§2)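 Growth inhibition was measured photometrically at 620 nm 3–5 days after application, with 100% efficacy meaning no growth and 0% meaning growth equal to the untreated control. Fungal spore or mycelium suspension in potato dextrose broth was added onto solvent-evaporated compound and incubated at 20° C and 85% relative humidity.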

[3] = test system: Cercospora beticola; assay: in vitro-Test with fungal microorganisms, Method B (tables C11-C20)
Outline: as §1

[4] = test system: Alternaria alternata; assay: in vitro-Test with fungal microorganisms, Method B (tables A13-A22)
Outline: as §1

[5] = test system: Colletotrichum coccodes; assay: in vitro-Test with fungal microorganisms, Method B (tables J1-J11)
Outline: as §1

[6] = test system: Colletotrichum lindemuthianum; assay: in vitro-Test with fungal microorganisms, Method A (tables D1-D8); conditions: mixing partner alone
Outline: as §2

[7] = test system: Cordana musae; assay: in vitro-Test with fungal microorganisms, Method A (tables E1-E8); conditions: single substance
Outline: as §2

[8] = test system: Diaporthe citri; assay: in vitro-Test with fungal microorganisms, Method B (tables F12-F15)
Protocol: Example: In Vitro-Test with Fungal Microorganisms
Wells of 96-well microtiter plates are filled with 30 μl of a preparation of test compound or compound combination in methanol+emulsifier alkylaryl-polyglycol-ether. Thereafter, the solvent is evaporated in a hood. At the next step, 200 μl of liquid growth medium is given, that has been amended with an appropriate concentration of spores or mycelium suspension of the test fungus.
With the aid of a photometer, the extinction in all wells is measured at the wavelength of 600 nm.
The microtiter plates are incubated for 3 to 7 days at 20° C. and 85% relative humidity. After the incubation inhibition of growth is determined photometrically. Efficacy is calculated in relation to the untreated control, 0% efficacy means fungal growth as high as in untreated control while 100% efficacy means no fungal growth is measured.
The data in tables A1 to A12, B1 to B14, C1 to C10, D1 to D8, E1 to E8, F1 to F11, G1 to G4, H1 to H4 and I1 to I5 were collected according to Method A. The data in tables A13 to A22, B15 to B18, C11 to C20, E9 to E16, F12 to F15, G5 to G15, H5 to H8, I6 to I11 and J1 to J11 were collected according to Method B.

[9] = test system: Fusarium culmorum; assay: in vitro-Test with fungal microorganisms, Method B (tables G5-G15); conditions: single active compound
Outline: as §1

[10] = test system: Ustilago segetum var. avenae; assay: in vitro-Test with fungal microorganisms, Method B (tables I6-I11)
Outline: as §1

[11] = single active compound at 20 ppm
[12] = single active compound at 100 ppm

`N#Cc1ccccc1NC(=O)c1snc(Cl)c1Cl` [(6.002) isotianil, isotianil] was tested, and the Efficacy ([1]; 0.8 ppm) was 9%, the Efficacy ([1]; 4 ppm) was 15% and 18% and the Efficacy ([1]; 20 ppm) was 10% and 18%. The Efficacy ([1]; 100 ppm) was 7%, the Efficacy ([2]; Table F11, 0.8 ppm alone) was 0% and the Efficacy ([2]; Table F11, 4.0 ppm alone) was 22%. It also gave an Efficacy ([2]; Table F11, 20.0 ppm alone) of 37%, an Efficacy ([2]; Table F11, 100.0 ppm alone) of 0% and an Efficacy ([2]; applied alone, 0.8 ppm) of 29%. The Efficacy ([2]; applied alone, 4.0 ppm) was 5%, the Efficacy ([2]; applied alone, 20.0 ppm) was 15% and the Efficacy ([2]; applied alone, 100.0 ppm) was 16%. For the same molecule, the Efficacy ([2]; single active, 0.8 ppm) was 0%, the Efficacy ([2]; single active, 4.0 ppm) was 12% and the Efficacy ([2]; single active, 20.0 ppm) was 14%. It also gave an Efficacy ([2]; single active, 100.0 ppm) of 18%, an Efficacy % ([3]; 4 ppm) of 8% and an Efficacy % ([3]; 20 ppm) of 3%. The Efficacy % ([3]; single compound, 100 ppm) was 0%, the Efficacy ([4]; 4 ppm) was 0% and the Efficacy ([4]; 20 ppm) was 0%. It also gave an Efficacy ([4]; 100 ppm) of 15%, an Efficacy ([4]; single compound, 0.8 ppm) of 0% and an Efficacy ([4]; single compound, 20 ppm) of 11%. The Efficacy % [5, 11] was 0%, the Efficacy % [5, 12] was 0% and the Efficacy % ([6]; 0.8 ppm) was 0%. For the same molecule, the Efficacy % ([6]; 4.0 ppm) was 9%, the Efficacy % ([6]; 20.0 ppm) was 3% and the Efficacy % ([6]; 100.0 ppm) was 0%. For the same molecule, the Efficacy % ([7]; 0.8 ppm) was 9%, the Efficacy % ([7]; 4.0 ppm) was 6% and the Efficacy % ([7]; 20.0 ppm) was 0%. For the same molecule, the Efficacy ([8]; Table F14, 0.8 ppm alone) was 10%, the Efficacy ([8]; Table F14, 4 ppm alone) was 9% and the Efficacy ([8]; Table F14, 20 ppm alone) was 5%. The Efficacy ([8]; Table F14, 100 ppm alone) was 19%, the Efficacy ([9]; 0.8 ppm) was 7% and the Efficacy ([9]; 4 ppm) was 16%. For the same molecule, the Efficacy ([9]; 20 ppm) was 14% and the Efficacy ([9]; 100 ppm) was 20%.

Molecule `CCO[PH](=O)[O-].CCO[PH](=O)[O-].CCO[PH](=O)[O-].[Al+3]` [(15.012) fosetylal] has an Efficacy % ([5]; 0.8 ppm) of 0%, an Efficacy % ([5]; 4 ppm) of 0% and an Efficacy % ([5]; 20 ppm) of 0%. It also gave an Efficacy % ([5]; single active compound at 0.8 ppm) of 27%, an Efficacy % ([5]; single active compound at 4 ppm) of 0% and an Efficacy % [5, 11] of 2%. The Efficacy % [5, 12] was 15%, the Efficacy ([8]; Table F12, 0.8 ppm alone) was 13% and the Efficacy ([8]; Table F12, 4 ppm alone) was 7%. The Efficacy ([9]; 4 ppm) was 5%, the Efficacy ([9]; 20 ppm) was 11% and the Efficacy ([9]; 100 ppm) was 30%. For the same molecule, the Efficacy % ([10]; 0.8 ppm) was 2% and the Efficacy % ([10]; 20 ppm) was 0%.

— patent US12653191B2, “Active compound combinations” (Bayer Aktiengesellschaft, priority 2020, dated 2026)
